Source: ChEMBL document CHEMBL1133805, “Discovery and initial structure-activity relationships of trisubstituted ureas as thrombin receptor (PAR-1) antagonists” (Bioorg Med Chem Lett, 2001)
Where a SMILES comes first, the peptide text is derived from it. [ ]: non-standard residue; d: D form. The star is where a group is joined. Phe(4-guanidino) = N=C(N)Nc1ccc(C[C@H](N)C(=O)O)cc1; Phe(4-F) = N[C@@H](Cc1ccc(F)cc1)C(=O)O; Orn = NCCC[C@H](N)C(=O)O; X1 = O=C(/C=C/c1ccccc1)*; Propionyl = CCC(=O)*

Species on record: Homo sapiens
Test: Inhibitory concentration against TRAP-stimulated secretion of 3H serotonin from human platelets
Format: functional

`CC(C)(C)C(=O)NCc1ccc(NC(=O)N2CCC[C@@H]2[C@@H](O)c2ccc(Cl)c(Cl)c2)cc1` and `CC(C)(C)C(=O)NCc1ccc(NC(=O)N2CCC[C@H]2[C@H](O)c2ccc(Cl)c(Cl)c2)cc1` cannot be ordered by IC50: greater than 10000 nM for the first, greater than 10000 nM for the second.

Going from `CC(C)(C)C(=O)NCc1ccc(NC(=O)N(CC(O)c2cccc(Cl)c2Cl)C2CCC2)cc1` (stereo not given) to `CC(C)(C)C(=O)NCc1ccc(NC(=O)N(CC(O)c2ccc(Cl)cc2Cl)C2CCC2)cc1` (stereo not given), the IC50 falls from greater than 10000 nM to 10000 nM.

`CC(C)N(C[C@@H](O)c1ccc(Cl)c(Cl)c1)C(=O)Nc1ccc(CNC(=O)C(C)(C)C)cc1` and `CC(C)N(C[C@@H](O)c1ccc(Cl)c(Cl)c1)C(=O)Nc1ccc(CNC(=O)C(C)(C)N)cc1` are within 1.5-fold of each other in IC50: 700 nM for the first, 1000 nM for the second.

Compared with `CC(C)(C)C(=O)NCc1ccc(NC(=O)N(CC(O)c2ccc(C#N)cc2)C2CCC2)cc1` (stereo not given), `CC(C)(C)C(=O)NCc1ccc(NC(=O)N(CC(O)c2cccc(C#N)c2)C2CCC2)cc1` (stereo not given) is higher in IC50: 6000 nM for the first, greater than 10000 nM for the second. The first is the more potent here.

Going from `CC(C)N(C[C@@H](O)c1ccc(Cl)c(Cl)c1)C(=O)Nc1ccc(NC(=O)c2ccc(F)cc2F)cc1` to `CC(C)N(C[C@@H](O)c1ccc(Cl)c(Cl)c1)C(=O)Nc1ccc(CNC(=O)c2ccc(F)cc2F)cc1`, the IC50 falls from greater than 10000 nM to 900 nM.

`CC(C)N(C[C@@H](O)c1ccc(Cl)c(Cl)c1)C(=O)Nc1ccc(NC(=O)C(C)(C)C)cc1` and `CC(C)N(C[C@@H](O)c1ccc(Cl)c(Cl)c1)C(=O)Nc1ccc(CCNC(=O)C(C)(C)C)cc1` cannot be ordered by IC50: greater than 10000 nM for the first, greater than 10000 nM for the second.

Going from `C[C@@H]1CC[C@@H]([C@@H](O)c2ccc(Cl)c(Cl)c2)N1C(=O)Nc1ccc(CNC(=O)C(C)(C)C)cc1` to `C[C@H]1CC[C@@H]([C@@H](O)c2ccc(Cl)c(Cl)c2)N1C(=O)Nc1ccc(CNC(=O)C(C)(C)C)cc1`, the IC50 falls from greater than 10000 nM to 400 nM.

First: CC(C)(C)C(=O)NCc1ccc(NC(=O)N(CC(O)c2ccc(F)c(F)c2)C2CCC2)cc1 (stereo not given)
Second: CC(C)(C)C(=O)NCc1ccc(NC(=O)N(CC(O)c2ccc(Br)c(Br)c2)C2CCC2)cc1 (stereo not given)
The IC50 of the first is 10-fold higher: 10000 nM for the first, 1000 nM for the second. The second is the more potent here.

First: CC(C)(C)C(=O)NCc1ccc(NC(=O)N2CCCC[C@H]2[C@H](O)c2ccc(Cl)c(Cl)c2)cc1
Second: CC(C)(C)C(=O)NCc1ccc(NC(=O)N2CCCC[C@H]2[C@@H](O)c2ccc(Cl)c(Cl)c2)cc1
The IC50 of the first is higher: greater than 10000 nM for the first, 4300 nM for the second. The second is the more potent here.

Going from `CCCN(C[C@@H](O)c1ccc(Cl)c(Cl)c1)C(=O)Nc1ccc(CNC(=O)C(C)(C)C)cc1` to `CCCCN(C[C@@H](O)c1ccc(Cl)c(Cl)c1)C(=O)Nc1ccc(CNC(=O)C(C)(C)C)cc1`, the IC50 rises from 1100 nM to greater than 10000 nM.

Compared with `CC(C)(C)C(=O)NCc1ccc(NC(=O)NC[C@@H](O)c2ccc(Cl)c(Cl)c2)cc1`, `CN(C[C@@H](O)c1ccc(Cl)c(Cl)c1)C(=O)Nc1ccc(CNC(=O)C(C)(C)C)cc1` is lower in IC50: greater than 40000 nM for the first, 40000 nM for the second. The second is the more potent here.

`CC(C)N(C[C@@H](O)c1ccc(Cl)c(Cl)c1)C(=O)Nc1ccc(CCNC(=O)c2ccc(S(N)(=O)=O)cc2)cc1` and `CC(C)N(C[C@@H](O)c1ccc(Cl)c(Cl)c1)C(=O)Nc1ccc(CNC(=O)c2ccc(S(N)(=O)=O)cc2)cc1` are within 1.5-fold of each other in IC50: 700 nM for the first, 850 nM for the second.

`CC(C)(C)C(=O)NCc1ccc(NC(=O)N2C[S+]([O-])C[C@@H]2[C@@H](O)c2ccc(Cl)c(Cl)c2)cc1` (stereo not given in full) and `CC(C)(C)C(=O)NCc1ccc(NC(=O)N2CCC[C@@H]2[C@H](O)c2ccc(Cl)c(Cl)c2)cc1` cannot be ordered by IC50: greater than 10000 nM for the first, greater than 10000 nM for the second.

Going from `CC(C)(C)C(=O)NCc1ccc(NC(=O)N(C[C@@H](O)c2ccc(Cl)c(Cl)c2)C2CC2)cc1` to `CC(C)(C)C(=O)NCc1ccc(NC(=O)N(CC(O)c2ccc(Cl)c(Cl)c2)C2CCC2)cc1` (stereo not given), the IC50 falls from 6700 nM to 230 nM (29-fold). The second is the more potent here.

Going from `CC(C)N(C[C@@H](O)c1ccc(Cl)c(Cl)c1)C(=O)Nc1ccc(CNC(=O)c2cccnc2)cc1` to `CC(C)N(C[C@@H](O)c1ccc(Cl)c(Cl)c1)C(=O)Nc1ccc(CCNC(=O)c2cccnc2)cc1`, the IC50 rises from 700 nM to 1400 nM (2-fold). The first is the more potent here.

`O=C1N(C[C@@H](O)c2ccc(Cl)c(Cl)c2)CCN1c1ccccc1` and `CC(C)(C)C(=O)NCc1ccc(NC(=O)N(C[C@@H](O)c2ccc(Cl)c(Cl)c2)c2ccccc2)cc1` cannot be ordered by IC50: greater than 100000 nM for the first, greater than 10000 nM for the second.

First: CC(C)N(C[C@@H](O)c1ccc(Cl)c(Cl)c1)C(=O)Nc1ccc(CNC(=O)Nc2ccc(CNC(N)=O)cc2)cc1
Second: CC(C)N(C[C@@H](O)c1ccc(Cl)c(Cl)c1)C(=O)Nc1ccc(NC(=O)c2ccc(S(N)(=O)=O)cc2)cc1
The IC50 of the first is 1.7-fold lower: 600 nM for the first, 1000 nM for the second.

First: CCN(C[C@@H](O)c1ccc(Cl)c(Cl)c1)C(=O)Nc1ccc(CNC(=O)C(C)(C)C)cc1
Second: CC(C)CN(C[C@@H](O)c1ccc(Cl)c(Cl)c1)C(=O)Nc1ccc(CNC(=O)C(C)(C)C)cc1
The IC50 of the first is lower: 3800 nM for the first, greater than 10000 nM for the second. The first is the more potent here.

Compared with `CC[C@H](C)N(C[C@@H](O)c1ccc(Cl)c(Cl)c1)C(=O)Nc1ccc(CNC(=O)C(C)(C)C)cc1`, `CC[C@@H](C)N(C[C@@H](O)c1ccc(Cl)c(Cl)c1)C(=O)Nc1ccc(CNC(=O)C(C)(C)C)cc1` is 1.7-fold lower in IC50: 400 nM for the first, 230 nM for the second.

`Cc1ccc(C(O)CN(C(=O)Nc2ccc(CNC(=O)C(C)(C)C)cc2)C2CCC2)cc1C` (stereo not given) and `CC(C)(C)C(=O)NCc1ccc(NC(=O)N(C[C@@H](O)c2ccc(Cl)c(Cl)c2)C2CCCC2)cc1` cannot be ordered by IC50: greater than 10000 nM for the first, greater than 10000 nM for the second.

Going from `CCCC(C)N(C[C@@H](O)c1ccc(Cl)c(Cl)c1)C(=O)Nc1ccc(CNC(=O)C(C)(C)C)cc1` (stereo not given in full) to `CC(C)(C)C(=O)NCc1ccc(NC(=O)N(C[C@@H](O)c2ccc(Cl)c(Cl)c2)C(C)(C)C)cc1`, the IC50 rises from 1000 nM to 1700 nM (1.7-fold).

First: CC(C)N(C[C@@H](O)c1ccc(Cl)c(Cl)c1)C(=O)Nc1ccc(NC(=O)c2cccc3[nH]cnc23)cc1
Second: CC(C)N(C[C@@H](O)c1ccc(Cl)c(Cl)c1)C(=O)Nc1ccc(CNC(=O)c2cccc3[nH]cnc23)cc1
The IC50 of the first is 2.2-fold higher: 1000 nM for the first, 450 nM for the second. The second is the more potent here.

Going from `CC(C)(C)C(=O)NCc1ccc(NC(=O)N2CCCC(O)(c3ccc(Cl)c(Cl)c3)C2)cc1` (stereo not given) to `CC(C)(C)C(=O)NCc1ccc(NC(=O)N2CCC(O)(c3ccc(Cl)c(Cl)c3)C2)cc1` (stereo not given), the IC50 rises from 500 nM to greater than 40000 nM.

`CC(C)N1CC(c2ccc(Cl)c(Cl)c2)CN(c2ccc(CNC(=O)C(C)(C)C)cc2)C1=O` (stereo not given) and `CC(C)(C)C(=O)NCc1ccc(NC(=O)N2CCOC(c3ccc(Cl)c(Cl)c3)C2)cc1` (stereo not given) cannot be ordered by IC50: greater than 10000 nM for the first, greater than 40000 nM for the second.

Going from `CC(C)(C)C(=O)NCc1ccc(NC(=O)N2CSC[C@@H]2[C@@H](O)c2ccc(Cl)c(Cl)c2)cc1` to `CC(C)(C)C(=O)NCc1ccc(NC(=O)N2CCC[C@H]2[C@@H](O)c2ccc(Cl)c(Cl)c2)cc1`, the IC50 falls from 2500 nM to 1500 nM (1.7-fold). The second is the more potent here.

First: CC(C)N(C[C@@H](O)c1ccc(Cl)c(Cl)c1)C(=O)Nc1ccc(CCNC(=O)c2ccc(F)cc2F)cc1
Second: CC(C)N(C[C@@H](O)c1ccc(Cl)c(Cl)c1)C(=O)Nc1ccc(CCNC(=O)c2cccc3[nH]cnc23)cc1
The IC50 of the first is higher: greater than 10000 nM for the first, 360 nM for the second. The second is the more potent here.

First: CC(C)(C)C(=O)NCc1ccc(NC(=O)N(CC(O)c2cc(Cl)cc(Cl)c2)C2CCC2)cc1 (stereo not given)
Second: CC[C@H]1CC[C@@H]([C@@H](O)c2ccc(Cl)c(Cl)c2)N1C(=O)Nc1ccc(CNC(=O)C(C)(C)C)cc1
The IC50 of the first is higher: greater than 10000 nM for the first, 700 nM for the second. The second is the more potent here.

Going from `CCC(=O)NCCC[C@H](NC(=O)[C@H](CCCN=C(N)N)NC(=O)[C@H](CC(C)C)NC(=O)[C@H](Cc1ccc(NC(=N)N)cc1)NC(=O)[C@H](Cc1ccc(F)cc1)NC(=O)/C=C/c1ccccc1)C(N)=O` (X1-[Phe(4-F)][Phe(4-guanidino)]LR[Orn](Propionyl)-NH2) to `CC(C)C[C@H](NC(=O)[C@H](Cc1ccc(NC(=N)N)cc1)NC(=O)[C@H](Cc1ccc(F)cc1)NC(=O)/C=C/c1ccccc1)C(=O)N[C@@H](CCCN=C(N)N)C(=O)N[C@@H](CCCN)C(N)=O` (X1-[Phe(4-F)][Phe(4-guanidino)]LR[Orn]-NH2), the IC50 falls from 120 nM to 54 nM (2.2-fold). The second is the more potent here.

Molecular target: T1, Proteinase-activated receptor 1 (Homo sapiens, UniProt P25116)
T1 sequence (P25116 whole entry): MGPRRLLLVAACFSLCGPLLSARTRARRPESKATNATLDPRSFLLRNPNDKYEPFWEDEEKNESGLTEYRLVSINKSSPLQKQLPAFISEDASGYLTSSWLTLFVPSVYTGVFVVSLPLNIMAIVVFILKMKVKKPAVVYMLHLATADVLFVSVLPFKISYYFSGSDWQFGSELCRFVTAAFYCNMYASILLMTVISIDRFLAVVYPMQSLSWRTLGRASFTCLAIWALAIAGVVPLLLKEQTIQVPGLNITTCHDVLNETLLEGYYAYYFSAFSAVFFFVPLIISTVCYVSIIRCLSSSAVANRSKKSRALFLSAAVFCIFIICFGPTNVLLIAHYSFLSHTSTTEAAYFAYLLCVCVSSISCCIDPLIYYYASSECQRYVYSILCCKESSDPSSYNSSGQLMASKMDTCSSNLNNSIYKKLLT
Test: Binding affinity against platelet thrombin receptor

Compared with `CC(C)N(C[C@@H](O)c1ccc(Cl)c(Cl)c1)C(=O)Nc1ccc(CNC(=O)C(C)(C)C)cc1`, `CC[C@@H](C)N(C[C@@H](O)c1ccc(Cl)c(Cl)c1)C(=O)Nc1ccc(CNC(=O)C(C)(C)C)cc1` is 5.8-fold lower in IC50: 700 nM for the first, 120 nM for the second. The second is the more potent here.

First: CC(C)(C)C(=O)NCc1ccc(NC(=O)N(C[C@@H](O)c2ccc(Cl)c(Cl)c2)C2CC2)cc1
Second: CN(C[C@@H](O)c1ccc(Cl)c(Cl)c1)C(=O)Nc1ccc(CNC(=O)C(C)(C)C)cc1
The IC50 of the first is 3.1-fold lower: 2100 nM for the first, 6600 nM for the second.

`CC(C)N(C[C@@H](O)c1ccc(Cl)c(Cl)c1)C(=O)Nc1ccc(CNC(=O)c2ccc(S(N)(=O)=O)cc2)cc1` and `CC(C)(C)C(=O)NCc1ccc(NC(=O)N2CCC[C@H]2[C@@H](O)c2ccc(Cl)c(Cl)c2)cc1` are within 1.5-fold of each other in IC50: 1200 nM for the first, 1100 nM for the second.

`C[C@H]1CC[C@@H]([C@@H](O)c2ccc(Cl)c(Cl)c2)N1C(=O)Nc1ccc(CNC(=O)C(C)(C)C)cc1` gave an IC50 of 1000 nM.

System: not listed separately
Test: Inhibitory activity against ADP or collagen induced platelet activation
Format: functional

In the case of `CC[C@@H](C)N(C[C@@H](O)c1ccc(Cl)c(Cl)c1)C(=O)Nc1ccc(CNC(=O)C(C)(C)C)cc1`, the IC50 is reported as greater than 10000 nM.

Molecular target: not listed separately
Test: Inhibitory activity against thrombin's catalytic activity was determined
Format: functional

Work on `CC[C@@H](C)N(C[C@@H](O)c1ccc(Cl)c(Cl)c1)C(=O)Nc1ccc(CNC(=O)C(C)(C)C)cc1` yielded a Ki greater than 10000 nM.
